{
  "source": "patent US6605459B2",
  "about": "“Methods for measuring cysteine and determining cysteine synthase activity” (Paradigm Genetics, Inc., priority 2001, dated 2003)",
  "target": "T1, cysteine synthase (Arabidopsis thaliana, UniProt Q9S6Z7)",
  "T1 construct": "made in house; host or cells: E. coli BL21(DE3)lysS (pET30/CS) or Sf-9 insect cells (baculovirus, pFB/CS)",
  "T1 sequence (Q9S6Z7 whole entry)": "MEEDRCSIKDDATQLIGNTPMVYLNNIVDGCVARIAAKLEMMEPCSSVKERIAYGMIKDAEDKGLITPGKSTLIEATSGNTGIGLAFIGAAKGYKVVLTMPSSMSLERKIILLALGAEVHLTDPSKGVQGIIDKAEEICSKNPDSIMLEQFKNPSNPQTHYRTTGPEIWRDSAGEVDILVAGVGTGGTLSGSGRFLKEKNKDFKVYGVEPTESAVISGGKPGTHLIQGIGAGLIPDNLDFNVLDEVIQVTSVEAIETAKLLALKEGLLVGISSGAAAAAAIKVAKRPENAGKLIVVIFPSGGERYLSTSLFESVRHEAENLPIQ",
  "assay": "Assay tolerance of DMSO in the cysteine synthase assay",
  "format": "biochemical",
  "settings": "0 to 2% DMSO (by volume)",
  "protocol": "A cysteine synthase assay was performed using various amounts of DMSO to test the assay compatibility of the DMSO. The results are shown in FIG. 24, where all values are the mean of triplicate determinations, and standard deviations are indicated.",
  "data": [
    {"compound": "C[S+](C)[O-]", "note": "[DMSO, dimethyl sulfoxide]", "values": [
      {"measurement": "inhibitory effect on cysteine synthase activity", "result": "No inhibitory effect"}
    ]}
  ]
}
